# Assay results as given in PMC10540216, “Activity Guided Azide-methyllysine Photo-trapping for Substrate Profiling of Lysine Demethylases” (Journal of the American Chemical Society, 2023).
# “Also recorded” adds a separate entry of the source. Where no end group is shown, it is not given here. [ ]: non-standard residue; d: D form. Lys(Me3) = C[N+](C)(C)CCCC[C@H](N)C(=O)O
# Experiments:
# KDM4E = experiment: Demethylase activity of wild type KDM4E on peptide substrates (MALDI-TOF MS); format: biochemical; details: 10 µM enzyme, 10 µM peptide, 1 mM 2OG, 50 mM Tris pH 8, 37°C, three hours
# Procedure: 200 FPLC column. The proteins were concentrated via centrifugation. Protein concentration was determined using Bradford assay.
# The N-terminal 6xHis-tagged KDM4E construct for bacterial expression was purchased from Addgene (#38990) and expressed following reported method.8 The wild type KDM4E plasmid was transformed into E. Coli BL21 (DE3) competent cells (Invitrogen) using pNIC28-Bsa4 kanamycin-resistant vector. A single colony was grown overnight at 37 °C in 10 mL of Luria-Bertani (LB) broth in the presence of 50 μg/mL kanamycin and 35 μg/mL chloramphenicol. The culture was diluted 100-fold and allowed to grow at 37 °C to an optical density (OD600) of 0.8, and protein expression was induced overnight at 17 °C with 1 mM IPTG in an Innova 44® Incubator shaker (New Brunswick Scientific). KDM4E was purified from pelleted cells by resuspending in lysis buffer (50 mM Tris-HCl pH 8.0, 200 mM NaCl, 5 mM β-ME, 10% glycerol, 25 mM imidazole, lysozyme, DNase, and Pierce protease inhibitor cocktail). The cells were lysed by sonication at 60 mA, 10 seconds on followed by 10 seconds off, for a total of 2 minutes. The cell debris was pelleted at 13,000 rpm for 40 minutes. The soluble cell extracts were incubated with Ni-NTA agarose resin (Thermo) according to manufactures protocol. […] Bradford Dye (BioRad) was used to quantify the protein concentration using BSA as a standard. […]
# DOT1L = experiment: Methylation of eIF4A3-K374 peptides by KMT (MALDI-TOF MS); format: biochemical; details: 20 µM KMT, 10 µM peptide, 200 µM SAM
# Procedure: (§1) expression constructs in pET28a or pET 28-MHL were obtained from Addgene: CAMKMT […]
# (§2) (Addgene #60091) and METTL21C (Addgene #60100). Plasmids were transformed into E. Coli BL21 (DE3) competent cells (Invitrogen) using appropriate resistant antibiotic. A single colony was picked up and grown overnight at 37 °C in 10 mL of Luria-Bertani (LB) broth in the presence of 50 μg/mL kanamycin and 35 μg/mL chloramphenicol. The culture was diluted 100-fold and allowed to grow at 37 °C to an optical density (OD600) of a minimum of 0.8, and protein expression was induced overnight at 17 °C with 0.5 to 1.0 mM IPTG in an Innova 44® Incubator shaker (New Brunswick Scientific). Proteins were purified as follows: harvested cells were resuspended in 15 mL lysis buffer (50 mM Tris-HCl pH 8.0, 200 mM NaCl, 5 mM β-mercaptoethanol, 10% glycerol, 25 mM imidazole, Lysozyme, DNase, and Roche protease inhibitor cocktail). The cells were lysed by pulsed sonication (Qsonica-Q700), and centrifuged at 13,000 rpm for 40 min at 4°C. The soluble extracts were subject to Ni-NTA agarose resin (Thermo) according to manufacturer’s instructions. After passing 20 volumes of washing buffer (50 mM Tris-HCl pH 8.0, 200 mM NaCl, 5 mM β-mercaptoethanol, 10% glycerol, and 25 mM imidazole), proteins were eluted with a buffer containing 50 mM Tris-HCl pH 8.0, 200 mM NaCl, 5 mM β-mercaptoethanol, 10% glycerol, and 400 mM imidazole. Proteins were further purified by size exclusion chromatography (Superdex-200) using AKTA pure FPLC system (GE healthcare) with buffer containing 50 mM Tris-HCl pH 8.0, 200 mM NaCl, and 10% glycerol. Purified proteins were concentrated using Pierce™ Protein Concentrator PES, 10K MWCO, 5-20 mL (Thermo Scientific™ 88527). The protein concentration was determined using Bradford assay kit (BioRad Laboratories) with BSA as a standard. The concentrated proteins were stored at -80 °C before use. […]
# (§3) 16. Methylation activity of wild type KMTs on eIF4A3-K374me0/1/2 peptides 20 µM lysine methyltransferase, 10 µM eIF4A3-me0/1/2 peptide and 200 µM SAM were incubated at room temperature for 1-2 hours in 50 mM Tris pH 8.0. Reaction was stopped by storing the microcentrifuge tubes on ice. After mixing, 0.8 µL of sample and 0.8 µL of α-cyano-4-hydroxycinnamic acid (CHCA) (dissolved in 50:50 0.1% TFA and acetonitrile) were combined on a MALDI plate. Samples were ionized using reflectron positive mode on Bruker Daltonics UltrafleXtreme MALDI TOF with detection carried out from 700-3500 m/z. Bruker Flex Analysis software was used to analyze the MALDI-TOF MS spectra.
# (§4) 17. Isothermal Titration Calorimetry […]
# (§5) The microsyringe (40µL) was loaded with 1.1 mM peptide and injected into the cell (200µL), occupied by CBX1 chromodomain at a concentration of 110 µM. […]
# METTL20 = experiment: as above; format: biochemical; details: 20 µM KMT, 10 µM peptide, 200 µM SAM
# Procedure: as §1, §2, §3, §4, §5
# METTL21A = experiment: as above; format: biochemical; details: 20 µM KMT, 10 µM peptide, 200 µM SAM
# Procedure: as §1, §2, §3, §4, §5
# METTL21C = experiment: as above; format: biochemical; details: 20 µM KMT, 10 µM peptide, 200 µM SAM
# Procedure: as §1, §2, §3, §4, §5
# G9a = experiment: as above; format: biochemical; details: 20 µM KMT, 10 µM peptide, 200 µM SAM
# Procedure: (§6) 7. Expression and purification of lysine methyltransferases and Chromodomains […]
# as §3, §4
# (§7) The microsyringe (40µL) was loaded with 1.1 mM peptide and injected into the cell (200µL), occupied by CBX1 chromodomain at a concentration of 110 µM. Data was fitted to a single binding site model using Microcal ITC200 Software with Origin Lab 7.
# (§8) KDM4A mammalian expression plasmid in CMV vector was purchased from Addgene (plasmid #24180). Full-length G9a in pCDNA3 vector was kind from Prof. Minkui Luo at the Memorial Sloan-Kettering Cancer Center. HEK293T/17 cells (ATCC) were grown in a T25 containing Delbucco’s Modified Eagle Medium (DMEM) (Corning) with 10% FBS at 37 °C, 5% CO2, and 95% relative humidity. When cells reached 80% confluency, 5 µg of plasmid and 10 µg
# SUV39H2 = experiment: as above; format: biochemical; details: 20 µM KMT, 10 µM peptide, 200 µM SAM
# Procedure: as §6, §3, §4, §7, §8
# CBX1 chromodomain [1] = molecular target: T1, CBX1 chromodomain (Homo sapiens, UniProt P83916); experiment: Isothermal titration calorimetry of peptide binding to CBX1 chromodomain; details: ITC, 25 °C, 1.1 mM peptide into 110 µM CBX1 chromodomain, 50mM Tris pH 8.0
# T1 construct: occupied by CBX1 chromodomain at a concentration of 110 µM; 6xHis (N); made in house
# T1 sequence (P83916 21-79 limits assumed): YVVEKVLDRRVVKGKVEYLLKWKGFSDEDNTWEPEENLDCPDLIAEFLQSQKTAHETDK
# Procedure: as §6
# 17. Isothermal Titration Calorimetry
# Isothermal titration calorimetry (ITC) was performed with an ITC200 instrument (MicroCal, Malvern). Experiments were conducted at 25 °C while stirring at 750 rpm. Buffers of protein […]
# were matched to 200mM NaCl, 10% glycerol, and 50mM Tris pH 8.0. Each titration was performed as follows: one initial injection of 0.4 µL for 0.8 seconds, followed by 19 injections of 2.0 µL for 4 seconds, with ≥2 mins between each injection. The initial injection was discarded prior to data analysis. The microsyringe (40µL) was loaded with 1.1 mM peptide and injected into the cell (200µL), occupied by CBX1 chromodomain at a concentration of 110 µM. Data was fitted to a single binding site model using Microcal ITC200 Software with Origin Lab 7.
# as §8
# CBX1 chromodomain [2] = molecular target: T1, CBX1 chromodomain; experiment: as above; details: ITC, T 288.15 K in Table S6
demethylation by KDM4E (KDM4E),binding to CBX1 chromodomain (in words) (CBX1 chromodomain [1]),TΔS (CBX1 chromodomain [2]),ΔG (CBX1 chromodomain [2]),ΔH (CBX1 chromodomain [2]),ΔS (CBX1 chromodomain [2]),Substance,methylation by DOT1L (in words) (DOT1L),methylation by METTL20 (in words) (METTL20),methylation by METTL21A (in words) (METTL21A),methylation by METTL21C (in words) (METTL21C),methylation by G9a (in words) (G9a),methylation by SUV39H2 (in words) (SUV39H2)
marginally demethylated only by KDM4E,,,,,,"NTKRESGR[Lys(Me3)]VQSGNINA [compound 15, TCPG-K21me3 peptide]",,,,,,
,no detectable interaction,0 kcal/mol,0 kcal/mol,0 kcal/mol,0 cal/mol/degree,"GRSGRYGRKGVAINFVK [compound 21, eIF4A3-K374me0 peptide]",failed to methylate,failed to methylate,failed to methylate,failed to methylate,also methylated eIF4A3-K374me0; also recorded: di- and trimethylation,also methylated eIF4A3-K374me0; also recorded: monomethylated
